The text below walks through data of patent US11548888B2, “KRas G12C inhibitors” (Mirati Therapeutics, Inc., priority 2019, dated 2023).

In the assay the target is T1, KRas G12C (Homo sapiens, UniProt P01116, G12C).
T1 construct: NCI-H358 cells (ATCC CRL-5807) express KRas G12C
T1 sequence (P01116 1-188 isoform P01116-2 G12C): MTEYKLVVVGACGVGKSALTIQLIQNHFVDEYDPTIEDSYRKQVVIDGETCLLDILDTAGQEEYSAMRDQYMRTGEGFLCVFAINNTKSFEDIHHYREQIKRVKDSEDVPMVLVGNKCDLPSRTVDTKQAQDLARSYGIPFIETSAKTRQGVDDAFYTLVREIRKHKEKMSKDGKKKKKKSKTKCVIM
In words: Inhibition of KRas G12C-dependent cell growth: Phospho-ERK in NCI-H358 cells. The assay is classed as cell-based. Particulars: NCI-H358 cells expressing KRas G12C; Phospho-ERK (Thr202/Tyr204) normalized to GAPDH; 3 hours compound; 4 parameter fit. The gist of the method: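 NCI-H358 cells (KRas G12C) exposed to compounds for 3 h, 0.5% DMSO final. Fixed cells immunostained for pERK(Thr202/Tyr204) and GAPDH with infrared secondary antibodies. pERK normalized to GAPDH, expressed as percent of DMSO control; IC50 from 4-parameter dose-response fit.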
On to `Cc1cccc2cncc(-c3ncc4c(N5CCN(C(=O)/C=C/CF)[C@@H](CC#N)C5)nc(OC[C@@H]5CC(F)(F)CN5C)nc4c3F)c12` [Example 55, 2-((S)-4-(2-(((S)-4,4-difluoro-1-methylpyrrolidin-2-yl)methoxy)-8-fluoro-7-(5-methylisoquinolin-4-yl)pyrido[4,3-d]pyrimidin-4-yl)-1-((E)-4-fluorobut-2-enoyl)piperazin-2-yl)acetonitrile], for which the IC50 amounted to 90 nM.

In the case of `C=C(F)C(=O)N1CCN(c2nc(OC[C@@H]3C[C@@H](OC)CN3C)nc3c(F)c(-c4cncc5cccc(Cl)c45)ncc23)C[C@@H]1CC#N` [Example 56, 2-[(2S)-4-[7-(5-chloro-4-isoquinolyl)-8-fluoro-2-[[(2S,4R)-4-methoxy-1-methyl-pyrrolidin-2-yl]methoxy]pyrido[4,3-d]pyrimidin-4-yl]-1-(2-fluoroprop-2-enoyl)piperazin-2-yl]acetonitrile], the IC50 was found to be 28 nM.

On to `COC/C=C/C(=O)N1CCN(c2nc(OC[C@@H]3C[C@@H](OC)CN3C)nc3c(F)c(-c4cccc5cccc(C)c45)ncc23)C[C@@H]1CC#N` [Example 57, 2-[(2S)-4-[8-fluoro-2-[[(2S,4R)-4-methoxy-1-methyl-pyrrolidin-2-yl]methoxy]-7-(8-methyl-1-naphthyl)pyrido[4,3-d]pyrimidin-4-yl]-1-[(E)-4-methoxybut-2-enoyl]piperazin-2-yl]acetonitrile], for which half-maximal inhibition (IC50) required 58 nM.

Molecule `C=C(F)C(=O)N1CCN(c2nc(OC[C@@H]3CCCN3C)nc3c(C#N)c(-c4cccc5cccc(C)c45)ncc23)C[C@@H]1CC#N` [Example 58, 4-[(3S)-3-(cyanomethyl)-4-(2-fluoroprop-2-enoyl)piperazin-1-yl]-7-(8-methyl-1-naphthyl)-2-[[(2S)-1-methylpyrrolidin-2-yl]methoxy]pyrido[4,3-d]pyrimidine-8-carbonitrile] returned a concentration for half-maximal inhibition (IC50) of 330 nM. This IC50 is about 5.7-fold higher than that of the molecule before.

Turning to `C=C(F)C(=O)N1CCN(c2nc(OCC3CCN3C(C)(C)C)nc3c(F)c(-c4cccc5cccc(Cl)c45)ncc23)C[C@@H]1CC#N` (stereo partly drawn) [Example 59, 2-[(2S)-4-[2-[(1-tert-butylazetidin-2-yl)methoxy]-7-(8-chloro-1-naphthyl)-8-fluoro-pyrido[4,3-d]pyrimidin-4-yl]-1-(2-fluoroprop-2-enoyl)piperazin-2-yl]acetonitrile], the IC50 turned out to be 60 nM.

`C=CC(=O)N1CCN(c2nc(OC[C@@H]3CCCN3C)nc3c(F)c(-c4ccccc4F)ncc23)C[C@@H]1CC#N` [Example 60, 2-[(2S)-4-[8-fluoro-7-(2-fluorophenyl)-2-[[(2S)-1-methylpyrrolidin-2-yl]methoxy]pyrido[4,3-d]pyrimidin-4-yl]-1-prop-2-enoyl-piperazin-2-yl]acetonitrile] displayed a concentration for half-maximal inhibition (IC50) of 127 nM.

`COC/C=C/C(=O)N1CCN(c2nc(OC[C@@H]3CCCN3C)nc3c(F)c(-c4cccc5cccc(C)c45)ncc23)C[C@@H]1CC#N` [Example 61, 2-[(2S)-4-[8-fluoro-7-(8-methyl-1-naphthyl)-2-[[(2S)-1-methylpyrrolidin-2-yl]methoxy]pyrido[4,3-d]pyrimidin-4-yl]-1-[(E)-4-methoxybut-2-enoyl]piperazin-2-yl]acetonitrile] gave an IC50 of 70 nM.

`COC/C=C/C(=O)N1CCN(c2nc(OC[C@@H]3C[C@@H](OC)CN3C)nc3c(F)c(-c4cccc5cccc(Cl)c45)ncc23)C[C@@H]1CC#N` [Example 62, 2-((S)-4-(7-(8-chloronaphthalen-1-yl)-8-fluoro-2-(((2S,4R)-4-methoxy-1-methylpyrrolidin-2-yl)methoxy)pyrido[4,3-d]pyrimidin-4-yl)-1-((E)-4-methoxybut-2-enoyl)piperazin-2-yl)acetonitrile] gave a concentration for half-maximal inhibition (IC50) of 18 nM.

`C=C(F)C(=O)N1CCN(c2nc(OC[C@@H]3CCCN3C)nc3c(OCC(F)(F)F)c(-c4cccc5cccc(C)c45)ncc23)C[C@@H]1CC#N` [Example 63, 2-((S)-1-(2-fluoroacryloyl)-4-(7-(8-methylnaphthalen-1-yl)-2-(((S)-1-methylpyrrolidin-2-yl)methoxy)-8-(2,2,2-trifluoroethoxy)pyrido[4,3-d]pyrimidin-4-yl)piperazin-2-yl)acetonitrile] displayed an IC50 of 2850 nM. Against the preceding molecule, the IC50 is about 160-fold higher.

As to `C=C(F)C(=O)N1CCN(c2nc(OC3CCN(C4CCOCC4)CC3)nc3c(F)c(-c4cccc5cccc(Cl)c45)ncc23)C[C@@H]1CC#N` [Example 64], half-maximal inhibition (IC50) required 376 nM.

As for `C=C(F)C(=O)N1CCN(c2nc(OCC3CN(C)CCO3)nc3c(F)c(-c4cccc5cccc(Cl)c45)ncc23)C[C@@H]1CC#N` (stereo partly drawn) [Example 65], the midpoint of inhibition, the IC50, lay at 36 nM.

`CC(C)(C)N1CCC1COc1nc(N2CCN(C(=O)/C=C/CF)[C@@H](CC#N)C2)c2cnc(-c3cccc4cccc(Cl)c34)c(F)c2n1` (stereo partly drawn) [Example 66] yielded an IC50 of 12 nM.

In the case of `C=C(F)C(=O)N1CCN(c2nc(OCCN(C)C)nc3c(F)c(-c4cccc5cccc(Cl)c45)ncc23)C[C@@H]1CC#N` [Example 68], the IC50 was found to be 86 nM. This IC50 is about 7.2-fold higher than that of the molecule before.

In turn, `C=CC(=O)N1CCN(c2nc(OC[C@@H]3CCCN3C)nc3c(F)c(-c4cccc5cccc(Cl)c45)ncc23)[C@@H](C)C1` [Example 69] registered an IC50 of 58 nM. The IC50 values of the last two molecules are within 1.5-fold of each other.

`C=C(F)C(=O)N1CCN(c2nc(OC3CCN(C)CC3)nc3c(F)c(-c4cccc5cccc(Cl)c45)ncc23)C[C@@H]1CC#N` [Example 70] yielded an IC50 of 456 nM.

On to `C=C(F)C(=O)N1CCN(c2nc(OCC3CCN3C)nc3c(F)c(-c4cccc5cccc(Cl)c45)ncc23)C[C@@H]1CC#N` (stereo partly drawn) [Example 71], for which 13 nM corresponded to half-maximal inhibition (IC50).

Consider `C=C(F)C(=O)N1CCN(c2nc(O[C@H](C)CN(C)C)nc3c(F)c(-c4cccc5cccc(Cl)c45)ncc23)C[C@@H]1CC#N` [Example 73], for which half-maximal inhibition (IC50) was put at 593 nM. This IC50 lies about 46-fold higher than the previous one.

Take `C=CC(=O)N1CC2(CCN(c3nc(OC4CCN(C5CCOCC5)CC4)nc4c(F)c(-c5cccc6cccc(Cl)c56)ncc34)CC2)C1` [Example 74]: the IC50 worked out at 1350 nM.

`C=C(F)C(=O)N1CCN(c2nc(OC[C@@H]3CCCN3C)nc3c(F)c(-c4cccc5cccc(Cl)c45)ncc23)[C@@H](C)C1` [Example 75] yielded an IC50 of 1190 nM.

In turn, `C=C(F)C(=O)N1CCN(c2nc(OC[C@@H]3CCCN3C)nc3c(F)c(-c4cccc5cccc(Cl)c45)ncc23)[C@H](C)C1` [Example 76] gave an IC50 of 3000 nM. This IC50 is about 2.5-fold higher than that of the molecule before.

Turning to `C=C(F)C(=O)N1CCN(c2nc(OCC34CCCN3CCC4)nc3c(F)c(-c4cccc5cccc(Cl)c45)ncc23)C[C@@H]1CC#N` [Example 77], the IC50 came to 2 nM.

Regarding `COC/C=C/C(=O)N1CCN(c2nc(OC[C@@H]3CCCN3C)nc3c(F)c(-c4cccc5cccc(Cl)c45)ncc23)C[C@@H]1CC#N` [Example 78], half-maximal inhibition (IC50) required 13 nM.

`C=CC(=O)N1CCN(c2nc(OC[C@@H]3CCCN3C)nc3c(F)c(-c4c(C)ccc5[nH]ncc45)ncc23)[C@@H](C)C1` [Example 79] registered an IC50 of 675 nM.

`C=CC(=O)N1CCN(c2nc(OC[C@@H]3CCCN3C)nc3c(F)c(-c4c(C)ccc5[nH]ncc45)ncc23)CC1` [Example 80]: the IC50 turned out to be 2520 nM. Compared with the last molecule, the IC50 is about 3.7-fold higher.

As to `C=C(F)C(=O)N1CCN(c2nc(OC[C@@H]3CCCN3C)nc3c(F)c(-c4c(O)cccc4F)ncc23)C[C@@H]1CC#N` [Example 81], the IC50 was found to be 1100 nM. This IC50 lies about 2.3-fold lower than the previous one.

Consider `C=C(F)C(=O)N1CCN(c2nc(OCCc3cccc(N)c3)nc3c(F)c(-c4cccc5cccc(Cl)c45)ncc23)C[C@@H]1CC#N` [Example 82], for which inhibition was half-maximal at 618 nM (IC50).

`C=CC(=O)N1CC2(CCN(c3nc(OC[C@@H]4CCCN4C)nc4c(F)c(-c5c(C)ccc6[nH]ncc56)ncc34)CC2)C1` [Example 83] came in with an IC50 of 3500 nM.
